Experimental data published in patent US20250228800A1, “Treatment of nasal cavity inflammation and mucus hypersecretion” (priority 2024, published 2025).
Read-outs that look alike come from different tables or passages of the source. Blank lines part the entries; values can stand above or below the molecule they belong to.

Tests used:
TRPA1 = molecular target: T1, TRPA1 (Homo sapiens, UniProt O75762); assay: Bioassay in cells transfected with TRPA1, Prof. Lee laboratory, Duke University; type: cell-based
T1 construct: expressed in transfected cells

tongue = assay: Oral cavity screen, 15 mg of white crystals on dorsal surface of the tongue; type: in vivo, human
Experimental: The first screening tests conducted in this discovery to assess candidates that produce refreshing cooling in the oral cavity. Test agents, prepared as 15 mg of white crystals, were placed on the dorsal surface of the tongue. The chemical structures and identifying characteristics are in Table 1.

TRPM8 [1] = molecular target: T2, TRPM8 (Homo sapiens, UniProt Q7Z2W7); settings: Ref#6; cited from earlier work
TRPM8 [2] = molecular target: T2, TRPM8; settings: Ref#2; cited from earlier work
[3] = molecular target: mouse cold-menthol receptor TRPM8 (Mus musculus, UniProt Q8R4D5); settings: Ref#1; cited from earlier work
philtrum skin = assay: Philtrum skin assay of cooling; type: in vivo, human; settings: for Duration (min) of cooling / Comments (sensation): 8% wt/vol gel on philtrum skin
Source text: Wei (2012) proposed the use of the skin on the philtrum as a test site for cooling activity of chemicals. The philtrum is the midline groove above the upper lip border and vermilion and is the drug application site. The gel is placed on the philtrum with a cotton-tipped applicator up to the nasolabial folds and sometimes, but not deliberately, on the lower nostrils (subnasale). Cold receptors densely innervate the philtrum skin, second only to the surfaces of the eyeball, nasal surfaces, and anogenitalia. The lips also have a high density of “cold spots.” This is called the philtrum assay. The test substance is dissolved in a carrier, such as solvent, gel, or ointment and applied to the philtrum, a surface area of ˜10 to 12 cm2. The subject records sensations on the philtrum and environs on a scale of 0 to 3, as: 0=no changes in sensation, 1=a slight feeling of coolness, cold or tingling, 2=a clearcut feeling of coolness or cold and 3=a robust feeling of coolness and cold. The intervals for measurements are usually 0, 1, 3, 5 min after application, and at then 5 min or longer intervals thereafter until two successive zeros are obtained. Test substances are applied to the philtrum using a cotton-tipped applicator (Puritan Cotton-tipped applicators, or Q-Tips). The applicator tip is dipped into a reservoir bottle containing the liquid or semi-liquid (gel) test substance. The composition adhering to the cotton (about 0.2 mL) is put on the skin. A subject can practice the method in front of a mirror with a high-intensity light source.

skin = settings: for treatment of skin dysesthesia (insect bites, skin allergies, thermal injury): topical gel on skin
TRPM8 [4] = molecular target: T2, TRPM8; settings: Ref#3; cited from earlier work
TRPM8 [5] = molecular target: T2, TRPM8; assay: Bioassay of FEMA 4557 (BUDA) on TRPM8, Prof. Lee laboratory, Duke University; type: cell-based
nasal cavity = assay: Study 1: NasoNeb nebulizer delivery to nasal cavity of subjects with rhinitis; type: in vivo, human
Experimental: Study 1. In this first study, a specialized nebulizer with an electronically controlled compressor was used to deliver FEMA 4557 to the nasal cavity of subjects with rhinitis. A typical dosage regimen was a 1.0 to 1.5% wt/vol solution (10 to 15 mg/mL) of FEMA 4557 over a 3 to 5 sec delivery period. […] No attempt was made to differentiate between delivered versus retained dose. The severity of rhinitis was quantified by gravimetric measurement of secretions and exudates from the nasal cavity (FIG. 15). Subjects were instructed to blow into a pre-weighed paper tissue and record the weight of the tissue after blowing. The tissue was inspected and marked as clear, with streaks of exudates, or dense gel. The nasal blowouts fell into three distinct categories of weights that were easy to recognize. […] The weight of the blowouts provides an objective index of nasal cavity inflammation. Nasal secretions were inhibited by topical administration of FEMA 4557, dissolved at 15 mg/ml in an ethanol, polysorbate 80, and saline mixture (FIG. 16). A Nasoneb® apparatus delivered FEMA 4557 into the nasal cavity (FIG. 13). The test substance was sprayed into the nasal cavity for 5 sec at t=0, 2, and 5 hr. The data points were fitted by linear regression (GraphPad Prism), and the 10-hr secretion was measured as ([…]). The results were vehicle 3.16±0.10 g and FEMA 4557 1.86±0.07 g, with n=6 and 5 observations per group, respectively. […] Inhibition of nasal secretions by topical administration of FEMA 4557, 15 mg/ml, delivered into the nasal cavity, is further illustrated by plotting the individual blowout units, in g per blowout FIG. 17. The test substances were sprayed into the nasal cavity for 5 sec at t=0, 2, and 5 hr. […] Thus, the anti-inflammatory effect of FEMA 4557 is further confirmed.

T2 sequence (Q7Z2W7 whole entry, species assumed): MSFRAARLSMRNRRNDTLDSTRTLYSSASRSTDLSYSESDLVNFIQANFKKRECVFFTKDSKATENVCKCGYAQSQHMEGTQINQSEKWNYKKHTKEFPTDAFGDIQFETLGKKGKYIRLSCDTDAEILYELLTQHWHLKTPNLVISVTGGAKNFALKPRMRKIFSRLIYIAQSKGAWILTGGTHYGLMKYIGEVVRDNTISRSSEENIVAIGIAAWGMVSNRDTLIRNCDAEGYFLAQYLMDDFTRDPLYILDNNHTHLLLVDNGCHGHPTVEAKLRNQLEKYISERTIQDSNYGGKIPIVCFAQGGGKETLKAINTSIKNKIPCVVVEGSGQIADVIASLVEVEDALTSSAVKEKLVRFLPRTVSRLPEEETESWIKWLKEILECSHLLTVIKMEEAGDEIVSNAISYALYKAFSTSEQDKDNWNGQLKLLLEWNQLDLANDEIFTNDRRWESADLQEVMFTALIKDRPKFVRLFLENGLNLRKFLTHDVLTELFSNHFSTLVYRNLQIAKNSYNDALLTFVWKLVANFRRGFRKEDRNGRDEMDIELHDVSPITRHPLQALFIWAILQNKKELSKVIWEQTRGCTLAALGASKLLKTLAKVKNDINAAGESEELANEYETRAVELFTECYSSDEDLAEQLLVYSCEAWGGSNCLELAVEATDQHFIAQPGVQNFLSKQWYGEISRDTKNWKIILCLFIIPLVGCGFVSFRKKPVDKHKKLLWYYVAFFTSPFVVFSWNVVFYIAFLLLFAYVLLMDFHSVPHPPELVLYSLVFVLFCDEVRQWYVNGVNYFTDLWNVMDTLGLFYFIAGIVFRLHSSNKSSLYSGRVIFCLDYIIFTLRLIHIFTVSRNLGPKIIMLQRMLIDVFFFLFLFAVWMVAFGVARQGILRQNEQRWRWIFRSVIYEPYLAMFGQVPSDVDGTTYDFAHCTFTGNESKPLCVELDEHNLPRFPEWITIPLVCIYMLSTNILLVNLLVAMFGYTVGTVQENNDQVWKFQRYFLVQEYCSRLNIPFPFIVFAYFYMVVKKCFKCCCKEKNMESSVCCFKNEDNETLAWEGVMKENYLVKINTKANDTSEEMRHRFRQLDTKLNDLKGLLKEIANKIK
T1 sequence (O75762 whole entry, species assumed): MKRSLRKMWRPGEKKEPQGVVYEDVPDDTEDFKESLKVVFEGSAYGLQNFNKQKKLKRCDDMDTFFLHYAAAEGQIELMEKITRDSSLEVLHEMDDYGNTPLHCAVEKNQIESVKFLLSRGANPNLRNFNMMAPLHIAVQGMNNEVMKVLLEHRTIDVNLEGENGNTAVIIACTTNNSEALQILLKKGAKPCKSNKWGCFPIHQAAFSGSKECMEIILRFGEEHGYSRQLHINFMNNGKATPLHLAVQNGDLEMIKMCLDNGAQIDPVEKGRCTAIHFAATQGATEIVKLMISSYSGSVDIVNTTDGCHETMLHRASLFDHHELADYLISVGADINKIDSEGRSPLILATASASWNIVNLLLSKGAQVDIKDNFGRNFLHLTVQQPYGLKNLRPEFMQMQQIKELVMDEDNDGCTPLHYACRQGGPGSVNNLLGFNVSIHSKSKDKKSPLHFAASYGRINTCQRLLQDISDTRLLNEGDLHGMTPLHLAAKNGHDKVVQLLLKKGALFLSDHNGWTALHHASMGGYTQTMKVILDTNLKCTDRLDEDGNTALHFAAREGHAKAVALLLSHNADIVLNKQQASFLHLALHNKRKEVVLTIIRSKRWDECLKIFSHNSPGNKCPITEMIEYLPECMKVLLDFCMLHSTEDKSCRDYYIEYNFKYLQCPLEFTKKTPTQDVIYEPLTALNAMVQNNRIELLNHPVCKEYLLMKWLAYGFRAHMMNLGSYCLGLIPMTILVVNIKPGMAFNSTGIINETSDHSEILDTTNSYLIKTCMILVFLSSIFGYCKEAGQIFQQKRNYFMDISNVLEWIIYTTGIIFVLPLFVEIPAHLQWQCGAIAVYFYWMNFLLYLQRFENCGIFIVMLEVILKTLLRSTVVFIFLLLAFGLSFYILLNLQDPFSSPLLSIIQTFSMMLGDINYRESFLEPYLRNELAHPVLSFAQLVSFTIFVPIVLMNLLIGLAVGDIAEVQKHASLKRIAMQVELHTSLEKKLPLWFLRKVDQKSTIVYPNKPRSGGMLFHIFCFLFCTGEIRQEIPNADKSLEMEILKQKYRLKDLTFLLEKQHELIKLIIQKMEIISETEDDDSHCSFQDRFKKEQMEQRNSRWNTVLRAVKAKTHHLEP
Sequence of mouse cold-menthol receptor TRPM8 (Q8R4D5 whole entry): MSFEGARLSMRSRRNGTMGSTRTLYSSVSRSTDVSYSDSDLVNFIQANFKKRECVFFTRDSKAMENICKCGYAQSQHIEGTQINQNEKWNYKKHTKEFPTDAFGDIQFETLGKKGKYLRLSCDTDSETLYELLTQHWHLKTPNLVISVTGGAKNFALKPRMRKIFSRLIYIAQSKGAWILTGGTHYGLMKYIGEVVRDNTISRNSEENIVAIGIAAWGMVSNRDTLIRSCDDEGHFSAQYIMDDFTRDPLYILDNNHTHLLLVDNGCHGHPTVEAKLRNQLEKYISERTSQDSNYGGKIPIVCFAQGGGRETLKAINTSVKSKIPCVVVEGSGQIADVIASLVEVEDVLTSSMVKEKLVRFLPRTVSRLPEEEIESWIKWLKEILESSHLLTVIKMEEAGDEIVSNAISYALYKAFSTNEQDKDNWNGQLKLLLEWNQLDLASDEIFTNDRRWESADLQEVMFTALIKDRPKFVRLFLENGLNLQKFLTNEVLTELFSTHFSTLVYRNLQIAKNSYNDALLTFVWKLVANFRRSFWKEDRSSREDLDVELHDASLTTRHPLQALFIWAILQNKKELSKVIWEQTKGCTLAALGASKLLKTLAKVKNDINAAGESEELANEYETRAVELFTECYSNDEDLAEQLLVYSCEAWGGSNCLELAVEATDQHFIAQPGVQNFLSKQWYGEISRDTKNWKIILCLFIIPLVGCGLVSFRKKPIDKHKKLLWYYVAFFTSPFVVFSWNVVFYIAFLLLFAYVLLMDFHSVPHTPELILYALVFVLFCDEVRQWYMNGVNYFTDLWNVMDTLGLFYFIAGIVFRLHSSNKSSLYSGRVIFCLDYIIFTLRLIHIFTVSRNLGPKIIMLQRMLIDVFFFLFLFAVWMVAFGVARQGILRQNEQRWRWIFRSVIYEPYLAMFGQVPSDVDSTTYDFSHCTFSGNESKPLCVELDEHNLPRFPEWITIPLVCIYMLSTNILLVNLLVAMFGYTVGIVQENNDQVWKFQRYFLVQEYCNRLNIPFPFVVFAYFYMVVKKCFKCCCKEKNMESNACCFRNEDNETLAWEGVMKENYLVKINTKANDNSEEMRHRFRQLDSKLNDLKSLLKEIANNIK

Structure (SMILES): C=CCN=C=S [AITC, allyl isothiocyanate]
- activity on TRPA1 (TRPA1): active

Structure (SMILES): CC(C)OC(=O)CNC(=O)[C@@H]1C[C@H](C)CC[C@H]1C(C)C [Ax-8, p-Menthane-Gly- OiPr]
- Effects of 15 mg on tongue (duration) (tongue): ~27 min
- Effects of 15 mg on tongue (sensation) (tongue): pleasant cooling in oral cavity

Structure (SMILES): CCOC(=O)[C@@H](C)NC(=O)[C@@H]1C[C@H](C)CC[C@H]1C(C)C [CPS-369]
- EC50 (TRPM8 [1]): 65 µM
- EC50 (TRPM8 [2]): 3.6 µM

Structure (SMILES): CC(C)[C@@H]1CC[C@@H](C)C[C@H]1OCC(O)CO (some centres unmarked) [Cool 10, menthoxypropanediol]
- EC50 [3]: 6 µM

Structure (SMILES): CCCCCCCP(=O)(C(C)C)C(C)C [Cryosim-1, 1-diisopropyl-phosphorylheptane]
- Effects of 15 mg on tongue (sensation) (tongue): stinging, painful cold

- activity on TRPA1 (TRPA1): not active
- EC50 relative to that of l-menthol (TRPM8 [5]): about 1/30
Structure (SMILES): CCNC(=O)C(CC)(C(C)C)C(C)C [FEMA 4557, N-ethyl-2,2-diisopropyl butanamide]
- Effects of 15 mg on tongue (duration) (tongue): > 35 min
- average time of cooling (philtrum skin; 2% concentration): 50 min
- average time of cooling (philtrum skin; 4% concentration): 95 min
- average time of cooling (philtrum skin; 8% concentration): ≥ 175 min
- duration of cooling (philtrum skin; 8% gel, FIG. 4): ~3 h
- Duration (min) of cooling (philtrum skin): 180+ min
- irritation of the skin (philtrum skin; concentrations of up to 12% weight/volume on philtrum skin): no irritation of the skin was observed with FEMA
- tissue irritation or inflammation on skin (skin; human, in vivo): no tissue irritation or inflammation appeared on the skin
- duration of stopping irritation of an insect sting (skin; topical gel 8 to 16% wt/vol): ≥ 3 h
- onset of stopping irritation of an insect sting (skin; topical gel 8 to 16% wt/vol): less than 3 minutes
- topical concentration with anti-inflammatory activity on skin (skin; total dose of several mg): ≥ 5 % wt/vol
- EC50 (TRPM8 [4]): 1.6 µM
- 10-hr nasal secretion (avg.±s.e.m) (nasal cavity; 15 mg/mL, 5 sec at t=0, 2 and 5 hr, NasoNeb, n=5, vehicle 3.16±0.10 g): 1.86±0.07 g
- individual nasal blowouts (average±s.e.m.) (nasal cavity; 15 mg/mL, 5 sec at t=0, 2 and 5 hr, NasoNeb, n=56, vehicle 0.38±0.03 g): 0.21 ± 0.03 g
- concentration that stops stuffiness of rhinitis and inhibits phlegm secretion (nasal cavity; applied to inflamed nasal membranes): ≤ 1.5 % wt/vol
- onset of beneficial effects after delivery (nasal cavity; topical nasal delivery): ≤ 15 min

Structure (SMILES): CCNC(=O)[C@@H]1C[C@H](C)CC[C@H]1C(C)C [WS-3]
- Effects of 15 mg on tongue (duration) (tongue): ~8 min
- Effects of 15 mg on tongue (sensation) (tongue): pleasant cooling in oral cavity
- EC50 (TRPM8 [1]): 210 µM
- EC50 (TRPM8 [4]): 5.9 µM

Structure (SMILES): CCOC(=O)CNC(=O)[C@@H]1C[C@H](C)CC[C@H]1C(C)C [WS-5]
- Effects of 15 mg on tongue (duration) (tongue): ~12 min
- Effects of 15 mg on tongue (sensation) (tongue): pleasant cooling in oral cavity
- EC50 (TRPM8 [1]): 26 µM
- Comments (sensation) (philtrum skin): pleasant cool sensations of skin
- Duration (min) of cooling (philtrum skin): 51 ± 4 min
- treatment of skin dysesthesia (insect bites, skin allergies, thermal injury) (skin): ineffective
- EC50 (TRPM8 [4]): 0.5 µM

Structure (SMILES): COc1ccc(NC(=O)[C@@H]2C[C@H](C)CC[C@H]2C(C)C)cc1 [WS-12]
- Effects of 15 mg on tongue (duration) (tongue): ~20 min
- Effects of 15 mg on tongue (sensation) (tongue): pleasant cooling in oral cavity
- Comments (sensation) (philtrum skin): pleasant cool sensations on skin
- Duration (min) of cooling (philtrum skin): 38 ± 4 min
- treatment of skin dysesthesia (insect bites, skin allergies, thermal injury) (skin): ineffective
- EC50 (TRPM8 [4]): 22.1 µM
- EC50 (TRPM8 [2]): 0.2 µM

Structure (SMILES): CNC(=O)C(C)(C(C)C)C(C)C [WS-23]
- Effects of 15 mg on tongue (duration) (tongue): too short-lived
- Effects of 15 mg on tongue (sensation) (tongue): painful cold in throat
- Effects of 15 mg on tongue (duration) (tongue; listed as 3804): ~18 min
- EC50 (TRPM8 [1]): 1500 µM
- Comments (sensation) (philtrum skin): short duration of action, no overt cold, but more
- Duration (min) of cooling (philtrum skin): 25 ± 3 min
- treatment of skin dysesthesia (insect bites, skin allergies, thermal injury) (skin): ineffective
- EC50 (TRPM8 [4]): 2.2 µM

Structure (SMILES): CC1CCC(C(C)C)C(C(=O)OCC(O)CO)C1 (centres unmarked) [WS-30]
- EC50 (TRPM8 [2]): 5.6 µM

Structure (SMILES): O=C1NC(c2cccc([N+](=O)[O-])c2)=CCN1c1ccccc1O [icilin]
- EC50 (TRPM8 [1]): 7 µM
